For the assay, the system named is MV-4-11 cells. Kind of assay: Gene expression microarray analysis (Affymetrix PrimeView) and GSEA. It counts as cell-based, human. More on the design: RFU PODN (11730768_x_at) / Fold change /veh PODN (11730768_x_at) / RFU LINC00158 (11744669_a_at) / Fold change /veh LINC00158 (11744669_a_at) / RFU DUSP10 (11751237_a_at) / Fold change /veh DUSP10 (11751237_a_at) / RFU ID3 (11757404_x_at) / Fold change /veh ID3 (11757404_x_at) / RFU PLEKHG5 (11737974_s_at) / Fold change /veh PLEKHG5 (11737974_s_at) / RFU LRRC4B (11730491_at) / Fold change /veh LRRC4B (11730491_at) / RFU GIMAP4 (11747438_a_at) / Fold change /veh GIMAP4 (11747438_a_at) / RFU KRT8 (11758183_x_at) / Fold change /veh KRT8 (11758183_x_at) / RFU CNN1 (11734310_a_at) / Fold change /veh CNN1 (11734310_a_at) / RFU VPS37D (11726825_at) / Fold change /veh VPS37D (11726825_at) / RFU C10orf10 (11716522_x_at) / Fold change /veh C10orf10 (11716522_x_at) / RFU KIR2DL2 /// KIR2DL4 /// KIR2DL5A /// KIR2DL5B /// KIR2DS1 /// KIR2DS2 /// KIR2DS3 /// KIR2DS4 /// KIR3DL3 /// KIR3DL3 /// KIR3DS1 (11738374_at) / Fold change /veh KIR2DL2 /// KIR2DL4 /// KIR2DL5A /// KIR2DL5B /// KIR2DS1 /// KIR2DS2 /// KIR2DS3 /// KIR2DS4 /// KIR3DL3 /// KIR3DL3 /// KIR3DS1 (11738374_at) / RFU C1QL1 (11718748_at) / Fold change /veh C1QL1 (11718748_at) / RFU TMPRSS4 (11747572_a_at) / Fold change /veh TMPRSS4 (11747572_a_at) / RFU HAMP (11756126_x_at) / Fold change /veh HAMP (11756126_x_at) / RFU RNFT2 (11725882_a_at) / Fold change /veh RNFT2 (11725882_a_at) / RFU NR4A2 (11747474_a_at) / Fold change /veh NR4A2 (11747474_a_at) / RFU ABCC12 (11746883_a_at) / Fold change /veh ABCC12 (11746883_a_at) / RFU TMEM136 (11760407_x_at) / Fold change /veh TMEM136 (11760407_x_at) / RFU CLDN22 /// WWC2 (11732394_at) / Fold change /veh CLDN22 /// WWC2 (11732394_at) / RFU HLA-DPB1 (11760878_x_at) / Fold change /veh HLA-DPB1 (11760878_x_at) / RFU SPINT1 (11716480_a_at) / Fold change /veh SPINT1 (11716480_a_at) / RFU GAP43 (11754022_s_at) / Fold change /veh GAP43 (11754022_s_at) / RFU A4GNT (11735810_at) / Fold change /veh A4GNT (11735810_at) / RFU PRB3 (11715151_x_at) / Fold change /veh PRB3 (11715151_x_at) / RFU TUBB4B (11761932_at) / Fold change /veh TUBB4B (11761932_at) / RFU CAPN14 (11732068_a_at) / Fold change /veh CAPN14 (11732068_a_at) / RFU TMCC2 (11721928_a_at) / Fold change /veh TMCC2 (11721928_a_at) / RFU IRGQ (11745062_a_at) / Fold change /veh IRGQ (11745062_a_at) / RFU FAM174B (11720279_a_at) / Fold change /veh FAM174B (11720279_a_at) / RFU TMPRSS4 (11748680_a_at) / Fold change /veh TMPRSS4 (11748680_a_at) / RFU FAM212B (11763350_a_at) / Fold change /veh FAM212B (11763350_a_at) / RFU PLEKHG5 (11743358_a_at) / Fold change /veh PLEKHG5 (11743358_a_at) / RFU ZSCAN30 (11745921_a_at) / Fold change /veh ZSCAN30 (11745921_a_at) / RFU CMKLR1 (11741424_a_at) / Fold change /veh CMKLR1 (11741424_a_at) / RFU LOC101060620 /// MAPK8IP1 (11723275_at) / Fold change /veh LOC101060620 /// MAPK8IP1 (11723275_at) / RFU SPTSSB (11747773_x_at) / Fold change /veh SPTSSB (11747773_x_at) / RFU PRSS12 (11739890_at) / Fold change /veh PRSS12 (11739890_at) / RFU BIN1 (11741810_x_at) / Fold change /veh BIN1 (11741810_x_at) / RFU WNT11 (11732464_a_at) / Fold change /veh WNT11 (11732464_a_at) / RFU C10orf10 (11716521_a_at) / Fold change /veh C10orf10 (11716521_a_at) / RFU C5orf56 (11738089_at) / Fold change /veh C5orf56 (11738089_at) / RFU CYB561 (11721691_x_at) / Fold change /veh CYB561 (11721691_x_at) / RFU ANKRD19P (11752326_a_at) / Fold change /veh ANKRD19P (11752326_a_at) / RFU OR2T12 /// OR2T33 /// OR2T8 (11738714_s_at) / Fold change /veh OR2T12 /// OR2T33 /// OR2T8 (11738714_s_at) / RFU VCAN (11748164_a_at) / Fold change /veh VCAN (11748164_a_at) / RFU JSRP1 (11732532_at) / Fold change /veh JSRP1 (11732532_at) / RFU KRTAP10-11 (11738290_x_at) / Fold change /veh KRTAP10-11 (11738290_x_at) / RFU MYO3A (11730013_a_at) / Fold change /veh MYO3A (11730013_a_at) / RFU EBF3 (11725865_a_at) / Fold change /veh EBF3 (11725865_a_at) / RFU CAMK2N1 (11719241_x_at) / Fold change /veh CAMK2N1 (11719241_x_at) / RFU C5orf56 (11738088_a_at) / Fold change /veh C5orf56 (11738088_a_at) / RFU OLFML3 (11715873_a_at) / Fold change /veh OLFML3 (11715873_a_at) / RFU LOC100653217 /// NTM (11731650_a_at) / Fold change /veh LOC100653217 /// NTM (11731650_a_at) / RFU MAPK11 (11762145_a_at) / Fold change /veh MAPK11 (11762145_a_at) / RFU FIZ1 (11724087_x_at) / Fold change /veh FIZ1 (11724087_x_at) / RFU OASL (11726364_x_at) / Fold change /veh OASL (11726364_x_at) / RFU SOX15 (11748057_x_at) / Fold change /veh SOX15 (11748057_x_at) / RFU CD79A (11719716_a_at) / Fold change /veh CD79A (11719716_a_at) / RFU HIST1H1D (11736915_at) / Fold change /veh HIST1H1D (11736915_at) / RFU CASKIN2 (11723855_a_at) / Fold change /veh CASKIN2 (11723855_a_at) / RFU LOC730098 (11760151_x_at) / Fold change /veh LOC730098 (11760151_x_at) / RFU OR4N2 (11742367_at) / Fold change /veh OR4N2 (11742367_at) / RFU PRRT2 (11749266_a_at) / Fold change /veh PRRT2 (11749266_a_at) / RFU SNX32 (11753110_a_at) / Fold change /veh SNX32 (11753110_a_at) / RFU CDHR5 (11726645_a_at) / Fold change /veh CDHR5 (11726645_a_at) / RFU RCAN1 (11760418_a_at) / Fold change /veh RCAN1 (11760418_a_at) / RFU FAM167A (11723789_a_at) / Fold change /veh FAM167A (11723789_a_at) / RFU FAM26E (11764081_at) / Fold change /veh FAM26E (11764081_at) / RFU ISYNA1 (11749810_s_at) / Fold change /veh ISYNA1 (11749810_s_at) / RFU ACY1 (11761880_at) / Fold change /veh ACY1 (11761880_at) / RFU 11764098_at / Fold change /veh 11764098_at / RFU SAMD14 (11745864_x_at) / Fold change /veh SAMD14 (11745864_x_at) / RFU NPB (11741838_a_at) / Fold change /veh NPB (11741838_a_at) / RFU TMPRSS6 (11731388_a_at) / Fold change /veh TMPRSS6 (11731388_a_at) / RFU KRTAP10-2 (11738614_at) / Fold change /veh KRTAP10-2 (11738614_at) / RFU ARHGAP8 /// PRR5-ARHGAP8 (11727945_x_at) / Fold change /veh ARHGAP8 /// PRR5-ARHGAP8 (11727945_x_at) / RFU KRTAP5-7 /// NADSYN1 (11734609_at) / Fold change /veh KRTAP5-7 /// NADSYN1 (11734609_at) / RFU RASL12 (11751679_a_at) / Fold change /veh RASL12 (11751679_a_at) / RFU CDKN2B (11736163_a_at) / Fold change /veh CDKN2B (11736163_a_at) / RFU PRF1 (11729649_at) / Fold change /veh PRF1 (11729649_at) / RFU, ZNF638 /// ZNF638-IT1 / Fold change vs veh, ZNF638 /// ZNF638-IT1 / RFU, PANK3 / Fold change vs veh, PANK3 / RFU, SH3YL1 / Fold change vs veh, SH3YL1 / RFU, ZEB2 / Fold change vs veh, ZEB2 / RFU, NRIP1 / Fold change vs veh, NRIP1 / RFU, PTTG1IP / Fold change vs veh, PTTG1IP / RFU, CAPN2 / Fold change vs veh, CAPN2 / RFU, MED14 / Fold change vs veh, MED14 / RFU, SNORA58 / Fold change vs veh, SNORA58 / RFU, C1orf63 / Fold change vs veh, C1orf63 / RFU, LRRFIP1 / Fold change vs veh, LRRFIP1 / RFU, NDUFAF7 / Fold change vs veh, NDUFAF7 / RFU, SLC12A2 / Fold change vs veh, SLC12A2 / RFU, IBTK / Fold change vs veh, IBTK / RFU, ESF1 / Fold change vs veh, ESF1 / Fold change vs veh, TMEM50B / RFU, TAOK1 / Fold change vs veh, TAOK1 / RFU, ACBD3 / Fold change vs veh, ACBD3 / RFU, TMA16 / Fold change vs veh, TMA16 / RFU, RWDD3 / Fold change vs veh, RWDD3 / RFU, BCAT1 / Fold change vs veh, BCAT1 / RFU, EDEM3 / Fold change vs veh, EDEM3 / RFU, TMEM33 / Fold change vs veh, TMEM33 / RFU, WDR75 / Fold change vs veh, WDR75 / RFU, AHCTF1 / Fold change vs veh, AHCTF1 / RFU, TFRC / Fold change vs veh, TFRC / RFU, ZDHHC17 / Fold change vs veh, ZDHHC17 / RFU, NOM1 / Fold change vs veh, NOM1 / RFU, ARL8B / Fold change vs veh, ARL8B / RFU, ZBTB11 / Fold change vs veh, ZBTB11 / RFU, TAMM41 / Fold change vs veh, TAMM41 / RFU, KIAA1704 /// LOC100996395 / Fold change vs veh, KIAA1704 /// LOC100996395 / RFU, ING1 / Fold change vs veh, ING1 / RFU, TRMT61B / Fold change vs veh, TRMT61B / RFU, FUBP3 / Fold change vs veh, FUBP3 / RFU, TP53 / Fold change vs veh, TP53 / RFU, TNKS2 / Fold change vs veh, TNKS2 / RFU, ZFP14 / Fold change vs veh, ZFP14 / RFU, ACTR2 / Fold change vs veh, ACTR2 / RFU, PPP3R1 / Fold change vs veh, PPP3R1 / RFU, PIK3R1 / Fold change vs veh, PIK3R1 / RFU, HNRNPA1 / Fold change vs veh, HNRNPA1 / RFU, RNF170 / Fold change vs veh, RNF170 / RFU, ZNF28 / Fold change vs veh, ZNF28 / RFU, RNGTT / Fold change vs veh, RNGTT / RFU, OGT / Fold change vs veh, OGT / RFU, BRD1 / Fold change vs veh, BRD1 / RFU, MARS / Fold change vs veh, MARS / RFU, ZNF655 / Fold change vs veh, ZNF655 / RFU, FAHD1 / Fold change vs veh, FAHD1 / RFU, BDP1 / Fold change vs veh, BDP1 / RFU, LRRCC1 / Fold change vs veh, LRRCC1 / RFU, ARID1A / Fold change vs veh, ARID1A / RFU, ZNF146 / Fold change vs veh, ZNF146 / RFU, ZNF330 / Fold change vs veh, ZNF330 / RFU, GPN3 / Fold change vs veh, GPN3 / RFU, C9orf123 / Fold change vs veh, C9orf123 / RFU, N4BP2L2 / Fold change vs veh, N4BP2L2 / RFU, ARFIP1 / Fold change vs veh, ARFIP1 / RFU, FAM179B / Fold change vs veh, FAM179B / RFU, BCL10 / Fold change vs veh, BCL10 / RFU, UHRF1BP1L / Fold change vs veh, UHRF1BP1L / RFU, BET1 / Fold change vs veh, BET1 / RFU, CNOT2 / Fold change vs veh, CNOT2 / RFU, ZNF268 / Fold change vs veh, ZNF268 / Fold change vs veh, ZNF507 / RFU, DGCR2 / Fold change vs veh, DGCR2 / RFU, WDSUB1 / Fold change vs veh, WDSUB1 / Fold change vs veh, HSP90B1 /// MIR3652 / RFU, ADSS / Fold change vs veh, ADSS / RFU, GK / Fold change vs veh, GK / RFU, ZNF148 / Fold change vs veh, ZNF148 / RFU, TAF9 / Fold change vs veh, TAF9 / RFU, SLC1A5 / Fold change vs veh, SLC1A5 / RFU, SLMO2 / Fold change vs veh, SLMO2 / RFU, ABCC4 / Fold change vs veh, ABCC4 / RFU, LOC101060439 /// RAP1B / Fold change vs veh, LOC101060439 /// RAP1B / RFU, RFX7 / Fold change vs veh, RFX7 / RFU, GTPBP10 / Fold change vs veh, GTPBP10 / RFU, CNEP1R1 / Fold change vs veh, CNEP1R1 / RFU, BIVM-ERCC5 /// ERCC5 / Fold change vs veh, BIVM-ERCC5 /// ERCC5 / RFU, ILF3 / Fold change vs veh, ILF3 / RFU 11762660_at / Fold change /veh 11762660_at / RFU VCAN (11757783_s_at) / Fold change /veh VCAN (11757783_s_at) / RFU DDX43 (11728927_at) / Fold change /veh DDX43 (11728927_at) / RFU KRT8 (11758188_x_at) / Fold change /veh KRT8 (11758188_x_at) / RFU NKD1 (11759106_at) / Fold change /veh NKD1 (11759106_at) / RFU SRD5A1 (11742802_a_at) / Fold change /veh SRD5A1 (11742802_a_at) / RFU TPSAB1 /// TPSB2 (11721975_s_at) / Fold change /veh TPSAB1 /// TPSB2 (11721975_s_at) / RFU GSTM3 (11746129_a_at) / Fold change /veh GSTM3 (11746129_a_at) / RFU IL23R (11737362_x_at) / Fold change /veh IL23R (11737362_x_at) / RFU TMEM51 (11727254_a_at) / Fold change /veh TMEM51 (11727254_a_at) / RFU PIWIL2 (11732686_x_at) / Fold change /veh PIWIL2 (11732686_x_at) / RFU ORM1 (11744905_x_at) / Fold change /veh ORM1 (11744905_x_at) / RFU CCDC152 (11743942_at) / Fold change /veh CCDC152 (11743942_at) / RFU ECM1 (11717891_a_at) / Fold change /veh ECM1 (11717891_a_at) / RFU IL23R (11748794_a_at) / Fold change /veh IL23R (11748794_a_at) / RFU TNFAIP8L3 (11732012_x_at) / Fold change /veh TNFAIP8L3 (11732012_x_at) / RFU MBOAT4 (11741988_at) / Fold change /veh MBOAT4 (11741988_at) / RFU 11764193_at / Fold change /veh 11764193_at / RFU TMEM53 (11763286_at) / Fold change /veh TMEM53 (11763286_at) / RFU MAGEB2 (11727129_at) / Fold change /veh MAGEB2 (11727129_at) / RFU TMEM200A (11744735_a_at) / Fold change /veh TMEM200A (11744735_a_at) / RFU CCDC152 (11751479_a_at) / Fold change /veh CCDC152 (11751479_a_at) / RFU FAM211A (11726209_a_at) / Fold change /veh FAM211A (11726209_a_at) / RFU RGS16 (11746705_a_at) / Fold change /veh RGS16 (11746705_a_at) / RFU VCAN (11755009_s_at) / Fold change /veh VCAN (11755009_s_at) / RFU RHOB (11743442_s_at) / Fold change /veh RHOB (11743442_s_at) / RFU RGS16 (11720943_a_at) / Fold change /veh RGS16 (11720943_a_at) / RFU RGS16 (11720944_at) / Fold change /veh RGS16 (11720944_at) / RFU, VPS4B / Fold change vs veh, VPS4B / RFU, CREB1 / Fold change vs veh, CREB1 / RFU, DNAJC13 / Fold change vs veh, DNAJC13 / RFU, GNAQ / Fold change vs veh, GNAQ / RFU, CDK5R1 / Fold change vs veh, CDK5R1 / RFU, ZRANB3 / Fold change vs veh, ZRANB3 / RFU, CUL4A / Fold change vs veh, CUL4A / RFU, CCNY / Fold change vs veh, CCNY / RFU, UFL1 / Fold change vs veh, UFL1 / RFU, COG3 / Fold change vs veh, COG3 / RFU, DIAPH2 / Fold change vs veh, DIAPH2 / RFU, SKA2 / Fold change vs veh, SKA2 / RFU, AFF3 / Fold change vs veh, AFF3 / RFU, LMF1 / Fold change vs veh, LMF1 / RFU, IPO11 / Fold change vs veh, IPO11 / RFU, DFFB / Fold change vs veh, DFFB / RFU, FOXP1 / Fold change vs veh, FOXP1 / RFU, CARD8 / Fold change vs veh, CARD8 / RFU, STRN3 / Fold change vs veh, STRN3 / RFU, ADK / Fold change vs veh, ADK / RFU, RASSF2 / Fold change vs veh, RASSF2 / RFU, WIPF1 / Fold change vs veh, WIPF1 / RFU, LARP1B / Fold change vs veh, LARP1B / RFU, RASA1 / Fold change vs veh, RASA1 / RFU, RB1 / Fold change vs veh, RB1 / RFU, PPFIA1 / Fold change vs veh, PPFIA1 / RFU, MAT2A / Fold change vs veh, MAT2A / RFU, CCT5 / Fold change vs veh, CCT5 / RFU, WDR92 / Fold change vs veh, WDR92 / RFU, CUX1 / Fold change vs veh, CUX1 / RFU, TTC7A / Fold change vs veh, TTC7A / RFU, TMEM135 / Fold change vs veh, TMEM135 / RFU, DEPTOR / Fold change vs veh, DEPTOR / RFU, CPM / Fold change vs veh, CPM / RFU, DNAJB6 / Fold change vs veh, DNAJB6 / RFU, CACNA2D3 / Fold change vs veh, CACNA2D3 / RFU, DTX4 / Fold change vs veh, DTX4 / RFU, TFCP2 / Fold change vs veh, TFCP2 / RFU, GMCL1 /// GMCL1P1 / Fold change vs veh, GMCL1 /// GMCL1P1 / RFU, AEBP2 / Fold change vs veh, AEBP2 / RFU, SNHG1 /// SNORD22 /// SNORD25 /// SNORD26 /// SNORD27 /// SNORD28 /// SNORD29 /// SNORD31 / Fold change vs veh, SNHG1 /// SNORD22 /// SNORD25 /// SNORD26 /// SNORD27 /// SNORD28 /// SNORD29 /// SNORD31 / Fold change (Aza/veh), C12orf56 (ProbeSet 11735607_a_at) / Fold change (ACY-1035/veh), C12orf56 (ProbeSet 11735607_a_at) / Fold change (Aza/veh), FGFR1OP (ProbeSet 11751329_s_at) / Fold change (ACY-1035/veh), FGFR1OP (ProbeSet 11751329_s_at) / Fold change (Aza/veh), VPS36 (ProbeSet 11739960_a_at) / Fold change (ACY-1035/veh), VPS36 (ProbeSet 11739960_a_at) / RFU SYPL1 (11715823_x_at) / Fold change /veh SYPL1 (11715823_x_at) / RFU IGFBP7 (11715501_s_at) / Fold change /veh IGFBP7 (11715501_s_at) / RFU REEP3 (11722064_at) / Fold change /veh REEP3 (11722064_at) / RFU IGLL1 (11728026_x_at) / Fold change /veh IGLL1 (11728026_x_at): dose or concentration left out as unconfirmed. The note with it: MV-4-11 cells, 48 hours.

On to `Nc1ccc(-c2cccs2)cc1NC(=O)c1ccc2c(c1)cc(C1CC1)n2CCN1CCOCC1` [ACY-1035], for which the “RFU CDKN2B (11736163_a_at)” value stood at 9.39 RFU.
